Reference: paper PMC8897968 (European Journal of Medicinal Chemistry, 2022)

Legend:
rabies virus CVS strain = assay: microbe, parasite or virus in culture; type: cell-based; details: for IC50: Lyssavirus rabies, read-out: IC50 values (anti-rabies, as worded in the text)
BSR cells = assay: Cytotoxicity in BSR cells; details: Cytotoxic concentration required to inhibit BSR cell growth by 50%
Huh 7 cells = assay: Cytotoxicity in Huh 7 cells; details: Cytotoxic concentration required to inhibit Huh 7 cell growth by 50%
pSARS-CoV-2 = type: cell-based, SARS-CoV-2
rabies virus G protein = rabies virus G protein (Rabies virus, UniProt O92284); assay: biochemical; type: binding
Chain of rabies virus G protein (O92284 20-459 limits assumed): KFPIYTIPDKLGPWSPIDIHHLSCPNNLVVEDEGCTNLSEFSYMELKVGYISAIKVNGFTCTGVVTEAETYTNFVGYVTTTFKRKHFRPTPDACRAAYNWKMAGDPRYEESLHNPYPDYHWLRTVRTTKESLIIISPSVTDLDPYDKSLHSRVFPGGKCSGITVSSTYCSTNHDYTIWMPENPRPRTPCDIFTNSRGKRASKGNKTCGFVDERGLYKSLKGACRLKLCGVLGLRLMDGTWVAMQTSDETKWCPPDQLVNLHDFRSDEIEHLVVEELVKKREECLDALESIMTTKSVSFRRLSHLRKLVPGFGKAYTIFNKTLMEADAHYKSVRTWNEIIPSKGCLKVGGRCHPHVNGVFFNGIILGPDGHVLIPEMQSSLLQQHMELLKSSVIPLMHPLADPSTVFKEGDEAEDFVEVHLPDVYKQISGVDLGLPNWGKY

[1] = Cytotoxicity in Huh 7 cells; details: human, Huh 7 cells
Kunming mice = assay: Acute toxicity test in Kunming mice; details: oral, single dose, monitored for 7 days

2-Benzyl-3-imino-5-phenyl-3,5-dihydrophenazine [Compound 6l]
EC50 (rabies virus CVS strain): 35.4 µM
CC50 (BSR cells): 35.4 µM

2-p-fluoroanilino-3-isopropylimino-5-p-chlorophenyl-3,5-dihydrophenazine [Compound 15a]
CC50 (Huh 7 cells): 17 µM
EC50 (rabies virus CVS strain): 4.02 µM
EC50 (pSARS-CoV-2): 29.6 µM
CC50 (BSR cells): > 200 µM

CC(C)/N=c1\cc2n(-c3ccc(Cl)cc3)c3ccccc3nc-2cc1Nc1ccc(Cl)cc1 [Compound 1, clofazimine, reference compound]
Kd (rabies virus G protein): 730 nM

CC(C)/N=c1\cc2n(-c3ccc(Cl)cc3)c3ccccc3nc-2cc1Nc1ccc(OC(F)(F)F)cc1 [Compound 7i, 2-p-Trifluoromethoxyanilino-3-isopropylimino-5-p-chlorophenyl-3,5-dihydro phenazine]
IC50 (rabies virus CVS strain): 1770 nM

CC(C)/N=c1\cc2n(-c3ccc(Cl)cc3)c3ccccc3nc-2cc1NCc1ccc(Cl)cc1 [Compound 7k, 2-p-Chlorobenzylamino-3-isopropylimino-5-p-chlorophenyl-3,5-dihydrophena zine]
IC50 (rabies virus CVS strain): 760 nM

CC(C)/N=c1\cc2n(-c3ccccc3)c3ccccc3nc-2cc1Nc1ccc(Cl)cc1 [Compound 7l]
IC50 (rabies virus CVS strain): 1400 nM

CC(C)/N=c1\cc2n(-c3ccccc3)c3ccccc3nc-2cc1NCc1ccccc1 [Compound 7p, 2-Benzylamino-3-isopropylimino-5-phenyl-3,5-dihydrophenazine]
IC50 (rabies virus CVS strain): 1400 nM

CC(C)/N=c1\cc2n(-c3ccccc3)c3ccccc3nc-2cc1NCc1ccc(F)cc1 [Compound 7q, 2-p-Fluorobenzylamino-3-isopropylimino-5-phenyl-3,5-dihydrophenazine]
IC50 (rabies virus CVS strain): 1900 nM

CC(C)/N=c1\cc2n(-c3ccc(F)cc3)c3ccccc3nc-2cc1Nc1ccc(F)cc1 [Compound 15b]
CC50 at 24 h [1]: > 200 µM

COc1ccc(-n2c3c/c(=N\C(C)C)c(Nc4cccc(F)c4)cc-3nc3ccccc32)cn1 [Compound 15f, 2-m-Fluoroanilino-3-isopropylimino-5-(6-methoxy-3-pyridinyl)-3,5-dihydro phenazine]
IC50 (rabies virus CVS strain): 1450 nM
Kd (rabies virus G protein): 280 nM
median lethal dose (LD50) (Kunming mice): over 800 mg•kg^−1

COc1ccc(-n2c3c/c(=N\C(C)C)c(Nc4ccc(F)cc4)cc-3nc3ccccc32)cn1 [Compound 15g, 2-p-Fluoroanilino-3-isopropylimino-5-(6-methoxy-3-pyridinyl)-3,5-dihydro phenazine]
IC50 (rabies virus CVS strain): 1410 nM
median lethal dose (LD50) (Kunming mice): over 800 mg•kg^−1
